Source: publication PMC4700268 (Frontiers in Pharmacology, 2016)

Experiments:
[1] = biological target: T1, hCNT2 (Homo sapiens, UniProt O43868); assay: [3H]ETV uptake in hCNT2 transfected cells; conditions: 5 min, 37°C
T1 sequence (O43868 1-658): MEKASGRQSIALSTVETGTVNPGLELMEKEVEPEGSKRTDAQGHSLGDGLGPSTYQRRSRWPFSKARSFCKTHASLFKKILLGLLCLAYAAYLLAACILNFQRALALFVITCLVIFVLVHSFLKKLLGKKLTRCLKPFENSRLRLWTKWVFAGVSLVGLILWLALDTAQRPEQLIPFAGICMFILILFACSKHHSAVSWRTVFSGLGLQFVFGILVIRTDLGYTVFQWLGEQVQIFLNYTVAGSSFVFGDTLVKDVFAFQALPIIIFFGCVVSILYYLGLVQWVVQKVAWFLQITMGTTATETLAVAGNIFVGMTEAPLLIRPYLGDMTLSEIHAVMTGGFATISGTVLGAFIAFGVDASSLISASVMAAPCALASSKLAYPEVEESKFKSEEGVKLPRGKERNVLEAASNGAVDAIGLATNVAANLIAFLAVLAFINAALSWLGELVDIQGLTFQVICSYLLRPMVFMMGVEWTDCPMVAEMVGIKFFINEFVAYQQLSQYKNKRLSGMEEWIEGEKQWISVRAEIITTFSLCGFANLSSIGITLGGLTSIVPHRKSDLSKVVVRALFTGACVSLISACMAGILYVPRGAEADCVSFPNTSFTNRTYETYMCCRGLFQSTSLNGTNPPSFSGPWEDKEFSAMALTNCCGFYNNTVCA

[2] = biological target: T1, hCNT2; assay: Inhibition of [3H]uridine uptake in hCNT2 transfected MDCK II cells; format: in vitro ADME; parameters: host or cells: MDCK II cells, transient transfection; conditions: 1 μM [3H]uridine, MDCK II cells transiently transfected with hCNT2, 2 min, 37°C; read-out: IC50, inhibition of hCNT2 mediated transport
Protocol: (§1) Inhibitory transport assays were carried out in 24-well plates as described previously ([Mandikova et al., 2013]). Transport assays in HeLa cells transiently transfected with the hOAT1 expression construct were performed 48 h after transfection. Transport assays in MDCK II cells transiently transfected with hOCT2, hCNT2 or hCNT3 were performed 24 h after transfection. The cultivation medium was removed and the cells were washed with transport solution and preincubated for 10 min at 37°C. The standard radiolabeled substrate or tested radioactive antiviral substance dissolved in transport solution was added to the cells and incubated for 2 min. [^3H]PAH (1 μM) was used as a prototypical substrate for OATs, [^3H]MPP^+ (1 μM) for OCTs and [^3H]uridine (1 μM) for CNTs. […] After the designated time period, the incubation was stopped by washing the cells twice with ice-cold solution containing 137 mM NaCl and 10 mM HEPES, pH 7.4. The cells were disintegrated with 0.1 mL of Triton X 0.5% in 100 mM NaOH for 1 h.
IC50 values were calculated using non-linear regression analysis using GraphPad Prism software (version 6).

[3] = biological target: T2, hOAT1 (Homo sapiens, UniProt Q4U2R8); assay: Inhibition of [3H]PAH uptake in hOAT1 transfected HeLa cells; format: in vitro ADME; parameters: host or cells: HeLa cells, transient transfection; conditions: 1 μM [3H]PAH, HeLa cells transiently transfected with hOAT1, 2 min, 37°C; read-out: IC50, inhibition of hOAT1 mediated transport
T2 sequence (Q4U2R8 1-563): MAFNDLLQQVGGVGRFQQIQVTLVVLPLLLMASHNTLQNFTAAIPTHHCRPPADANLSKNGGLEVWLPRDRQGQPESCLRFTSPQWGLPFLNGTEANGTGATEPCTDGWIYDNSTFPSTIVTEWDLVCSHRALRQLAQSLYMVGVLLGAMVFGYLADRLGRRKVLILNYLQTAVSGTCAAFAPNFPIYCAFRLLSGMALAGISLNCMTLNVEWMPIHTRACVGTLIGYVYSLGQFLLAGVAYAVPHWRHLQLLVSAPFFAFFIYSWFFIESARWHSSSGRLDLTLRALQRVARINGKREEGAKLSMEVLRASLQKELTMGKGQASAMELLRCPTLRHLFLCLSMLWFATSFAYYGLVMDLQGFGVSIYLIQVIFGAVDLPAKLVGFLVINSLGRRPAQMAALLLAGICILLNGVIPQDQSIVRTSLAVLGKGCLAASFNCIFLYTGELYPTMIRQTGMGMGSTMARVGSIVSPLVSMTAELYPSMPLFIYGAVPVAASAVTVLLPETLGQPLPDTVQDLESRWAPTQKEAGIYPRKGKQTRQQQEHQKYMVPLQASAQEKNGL
Protocol: as §1, with “min.” for “min. [^3H]PAH (1 μM) was used as a prototypical substrate for OATs, [^3H]MPP^+ (1 μM) for OCTs and [^3H]uridine (1 μM) for CNTs.”, “h. […] IC50 values were calculated using non-linear regression analysis using GraphPad Prism software (version 6).” for “h.”

[4] = biological target: T2, hOAT1; assay: [3H]ETV uptake in hOAT1 transfected cells; format: in vitro ADME; parameters: host or cells: HeLa cells, transient transfection; conditions: 5 min, 37°C
[5] = biological target: T2, hOAT1; assay: Inhibition by ETV of [3H]adefovir, [3H]tenofovir, [3H]cidofovir accumulation in hOAT1 transfected HeLa cells; format: in vitro ADME; parameters: host or cells: HeLa cells, transient transfection; conditions: 2 min
Protocol: as §1, with “min.” for “min. [^3H]PAH (1 μM) was used as a prototypical substrate for OATs, [^3H]MPP^+ (1 μM) for OCTs and [^3H]uridine (1 μM) for CNTs.”, “h. […] IC50 values were calculated using non-linear regression analysis using GraphPad Prism software (version 6).” for “h.”

Question: With `C=C1[C@H](CO)[C@@H](O)C[C@@H]1n1cnc2c(=O)[nH]c(N)nc21` [ETV, Entecavir] as the compound, how does the “Vmax of [3H]ETV uptake by hCNT2” value [1] read?
Answer: 68.88 nmol/mg protein/5 min

Question: What about the IC50 [2] of the same compound?
Answer: 242 µM

Question: And the IC50 [3]?
Answer: 175 µM

Question: What about the “Vmax of [3H]ETV uptake by hOAT1” value [4] of the same compound?
Answer: 0.91 nmol/mg protein/5 min

Question: What about the IC50 ([5]; IC50, inhibition of [3H]cidofovir accumulation by hOAT1, [3H]cidofovir 70 μM) of the same compound?
Answer: 695 µM

Question: What about the IC50 ([5]; [3H]adefovir 0.1 μM, read-out: IC50, inhibition of [3H]adefovir accumulation by hOAT1) of the same compound?
Answer: 432 µM

Question: And the IC50 ([5]; [3H]tenofovir 0.5 μM, read-out: IC50, inhibition of [3H]tenofovir accumulation by hOAT1)?
Answer: 704 µM
